Laboratory results taken from patent US8487121B2, “Chromane derivatives as TRPV3 modulators” (Glenmark Pharmaceuticals S.A., priority 2007, dated 2013).

Target: T1, Human TRPV3 (Homo sapiens, UniProt Q8NET8)
T1 construct: expressed in transfected cells; host or cells: CHO cells (G-418 selected)
T1 sequence (Q8NET8 1-790): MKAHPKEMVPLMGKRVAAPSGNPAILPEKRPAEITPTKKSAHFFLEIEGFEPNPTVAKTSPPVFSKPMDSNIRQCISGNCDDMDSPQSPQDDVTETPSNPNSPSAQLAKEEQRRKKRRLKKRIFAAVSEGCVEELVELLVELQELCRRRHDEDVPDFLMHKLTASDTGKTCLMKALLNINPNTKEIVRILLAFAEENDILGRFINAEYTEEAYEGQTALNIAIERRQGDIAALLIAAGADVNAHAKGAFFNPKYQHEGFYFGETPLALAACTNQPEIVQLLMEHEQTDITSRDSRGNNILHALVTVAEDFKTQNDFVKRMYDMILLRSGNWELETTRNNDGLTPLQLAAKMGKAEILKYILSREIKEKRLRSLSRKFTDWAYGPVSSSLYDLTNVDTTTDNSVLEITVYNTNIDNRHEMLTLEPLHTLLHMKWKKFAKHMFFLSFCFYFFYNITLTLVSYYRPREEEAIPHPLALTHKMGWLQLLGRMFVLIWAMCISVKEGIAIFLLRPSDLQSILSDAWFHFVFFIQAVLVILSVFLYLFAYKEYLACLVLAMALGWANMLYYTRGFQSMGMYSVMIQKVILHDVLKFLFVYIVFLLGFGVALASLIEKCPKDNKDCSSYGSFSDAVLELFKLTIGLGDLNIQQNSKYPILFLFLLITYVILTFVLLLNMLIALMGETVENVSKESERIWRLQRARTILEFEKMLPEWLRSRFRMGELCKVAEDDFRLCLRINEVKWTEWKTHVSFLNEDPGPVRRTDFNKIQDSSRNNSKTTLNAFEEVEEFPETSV
Experiment: 45Calcium uptake assay: inhibition of 2-APB induced cellular uptake of radioactive calcium
Format: cell-based
Settings: human TRPV3 expressing CHO cells, 2-APB 500 μM; for inhibition at 1 µM: 1.0 μM compound, read-out: Percentage inhibition at 1.0 μM; for inhibition at 10 µM: 10.0 μM compound, read-out: Percentage inhibition at 10.0 μM
Outline: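 CHO cells stably expressing human TRPV3 (~50,000/well) were preincubated with compounds for 10 min in medium containing 0.1% BSA, 1.8 mM CaCl2 and 0.5% DMSO. Then 500 μM 2-APB and 5 μCi/ml 45Ca2+ were added for 4 min. Lysate radioactivity was expressed as % of maximal uninhibited response, and IC50 came from nonlinear regression, alongside % inhibition at 1.0 and 10.0 μM.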

| Structure (SMILES) | inhibition at 1 µM [%] | inhibition at 10 µM [%] | IC50 [nM] |
| --- | --- | --- | --- |
| O=C(CCc1cccc(OC2CCCC2)c1)N[C@@H]1CC2(CCC2)Oc2ccc(Cl)cc21 [Example 29, N-[(4R)-6-chloro-3,4-dihydrospiro[chromene-2,1′-cyclobutan]-4-yl]-3-(3-cyclopentyloxy)phenyl propanamide] | 43.6 | 88.4 | – |
| COc1ccc(CCC(=O)N[C@@H]2CC3(CCC3)Oc3ccc(Cl)cc32)c2ccccc12 [Example 69, N-[(4R)-6-Chloro-3,4-dihydrospiro[chromene-2,1′-cyclobutan]-4-yl)-3-(4-methoxy)-1-naphthylpropanamide] | 40.3 | 86.8 | – |
| CCOc1cccc(CCC(=O)NC2CC3(CCC3)Oc3ccc(Cl)cc32)c1OC1CCCC1 (centres unmarked) [Example 44, N-(6-Chloro-3,4-dihydrospiro[chromene-2,1′-cyclobutan]-4-yl)-3-(2-cyclopentyloxy-3-ethoxy)phenylpropanamide] | 50.8 | 88.8 | – |
| COc1cccc(CCC(=O)NC2CC3(CCC3)Oc3c(Cl)cc(Cl)cc32)c1OCCN(C)C (centres unmarked) [Example 60, N-(6,8-dichloro-3,4-dihydrospiro[chromene-2,1′-cyclobutan]-4-yl)-3-{[2-(dimethylamino)ethoxy-3-methoxy]phenyl}propanamide] | 1.2 | 0 | – |
| COc1ccc2cc([C@H](C)C(=O)N[C@H]3CC4(CCC4)Oc4ccc(Cl)cc43)ccc2c1 [Example 20, (2S)—N-[(4S)-6-Chloro-3,4-dihydrospiro[chromene-2,1′-cyclobutan]-4-yl]-2-(6-methoxy-2-naphthyl)propanamide] | 19.3 | 50.9 | – |
| COc1cc(CCC(=O)N[C@@H]2CC3(CCC3)Oc3ccc(Cl)cc32)cc2cc(C)oc12 [Example 79, N-[(4R)-6-Chloro-3,4-dihydrospiro[chromene-2,1′-cyclobutan]-4-yl]-3-(7-methoxy-2-methyl-1-benzofuran-5-yl)propanamide] | 51.5 | 95.5 | – |
| O=C(CCc1ccc(OC(F)F)c2ccccc12)N[C@H]1CC2(CCC2)Oc2ccc(Cl)cc21 [Example 72, (4S)-6-Chloro-N-(3,4-dihydrospiro[chromene-2,1′-cyclobutan]-4-yl)-3-(4-difluoromethoxy-1-naphthyl)propanamide] | 60.3 | 93.3 | 500 to 1000 |
| O=C(Cc1noc2ccccc12)N[C@H]1CC2(CCC2)Oc2ccc(Cl)cc21 [Example 27] | 5.3 | 75.9 | – |
| O=C(CCc1cccc2c1OCCO2)NC1CC2(CCC2)Oc2ccc(Cl)cc21 (centres unmarked) [Example 84] | 11 | 83.2 | – |
| COc1ccccc1CC(=O)NC1CC2(CCC2)Oc2ccc(Cl)cc21 (centres unmarked) [Example 2, N-(6-Chloro-3,4-dihydrospiro[chromene-2,1′-cyclobutan]-4-yl)-2-(2-methoxyphenyl)-acetamide] | 12 | 79 | > 2000 |
| COc1cccc(CCC(=O)NC2CC3(CCC3)Oc3ccc(Cl)cc32)c1OC(C)C (centres unmarked) [Example 39, N-(6-Chloro-3,4-dihydrospiro[chromene-2,1′-cyclobutan]-4-yl)-3-(2-isopropoxy-3-methoxy)phenylpropanamide] | 73.8 | 97.5 | 500 to 1000 |
| COc1cccc(CCCC(=O)NC2CC(C)(C)Oc3ccc(Cl)cc32)c1OC1CCCC1 (centres unmarked) [Example 103, N-(6-Chloro-2,2-dimethyl-3,4-dihydro-2H-chromen-4-yl)-4-(2-cyclopentyloxy-3-methoxy)phenylbutanamide] | 69.4 | 96.4 | 500 to 1000 |
| COc1cccc(CCC(=O)NC2CC3(CCC3)Oc3cccc(O)c32)c1OC1CCCC1 (centres unmarked) [Example 51, N-(5-Hydroxy-3,4-dihydrospiro[chromene-2,1′-cyclobutan]-4-yl)-3-(2-cyclopentyloxy-3-methoxy)phenylpropanamide] | 37.1 | 86.7 | 1000 to 2000 |
| O=C(Cc1cccc2ccccc12)NC1CC2(CCC2)Oc2ccccc21 (centres unmarked) [Example 9, N-(3,4-dihydrospiro[chromene-2,1′-cyclobutan]-4-yl)-2-(1-naphthyl)acetamide] | 11.7 | 68.5 | – |
| COc1cccc(CCC(=O)NC2CC3(CCCC3)Oc3ccc(Cl)cc32)c1OC1CCCC1 (centres unmarked) [Example 86, N-(6-Chloro-3,4-dihydrospiro[chromene-2,1′-cyclopentan]-4-yl)-3-(2-cyclopentyloxy-3-methoxy)propanamide] | 11.6 | 66 | – |
| COc1cccc(CCCC(=O)NC2CC3(CCC3)Oc3cc(OCc4ccccc4)ccc32)c1OC1CCCC1 (centres unmarked) [Example 99, N-(7-Benzyloxy-3,4-dihydrospiro[chromene-2,1′-cyclobutan]-4-yl)-4-(2-cyclopentyloxy-3-methoxyphenyl)butanamide] | 19.9 | 19.6 | – |
| COc1cccc(CC(=O)N[C@@H]2CC3(CCC3)Oc3c(Cl)cccc32)c1OC1CCCC1 [Example 5, N-[(4R)-8-Chloro-3,4-dihydrospiro[chromene-2,1′-cyclobutan]-4-yl]-2-(2-cyclopentyloxy-3-methoxy)phenylacetamide] | 11.7 | 86.8 | – |
| O=C(CCc1cccc2c1OCO2)NC1CC2(CCC2)Oc2ccc(Cl)cc21 (centres unmarked) [Example 82, 3-(1,3-Benzodioxol-4-yl)-N-[6-chloro-3,4-dihydrospiro[chromene-2,1′-cyclobutan]-4-yl]propanamide] | 24.3 | 90.9 | – |
| O=C(CCc1cccc2ccccc12)NC1CC2(CCC2)Oc2ccc(Cl)cc21 (centres unmarked) [Example 66, N-(6-Chloro-3,4-dihydrospiro[chromene-2,1′-cyclobutan]-4-yl)-3-(1-naphthyl)propanamide] | 44.6 | 92.3 | – |
| COc1ccc2cc([C@H](C)C(=O)N[C@@H]3CC4(CCC4)Oc4ccc(Cl)cc43)ccc2c1 [Example 19, (2S)—N-[(4R)-6-Chloro-3,4-dihydrospiro[chromene-2,1′-cyclobutan]-4-yl]-2-(6-methoxy-2-naphthyl)propanamide] | 23.1 | 61.7 | – |
| COc1cccc(CCC(=O)NC2CC3(CCC3)Oc3ccc(Cl)cc32)c1OCC1CC1 (centres unmarked) [Example 41, N-(6-Chloro-3,4-dihydrospiro[chromene-2,1′-cyclobutan]-4-yl)-3-(2-cyclopropylmethoxy-3-methoxy)phenylpropanamide] | 49 | 96.4 | 500 to 1000 |
| COc1cccc(CCCC(=O)NC2CC3(CCC3)Oc3c(Cl)cc(F)cc32)c1OC1CCCC1 (centres unmarked) [Example 97, N-(8-Chloro-6-fluoro-3,4-dihydrospiro[chromene-2,1′-cyclobutan]-4-yl)-4-(2-cyclopentyloxy-3-methoxyphenyl)butanamide] | 60 | 90.3 | 1000 to 2000 |
| CC(C)Oc1c(CCC(=O)NC2CC3(CCC3)Oc3c(Cl)cc(Cl)cc32)cccc1NS(C)(=O)=O (centres unmarked) [Example 65, N-(6,8-Dichloro-3,4-dihydrospiro[chromene-2,1′-cyclobutan]-4-yl)-3-{2-isopropoxy-3-[(methylsulfonyl)amino]phenyl}propanamide] | 74.1 | 99.5 | 500 to 1000 |
| COc1cccc(CCC(=O)NC2CC3(CCC3)Oc3cccc(OC)c32)c1OC1CCCC1 (centres unmarked) [Example 52, N-(3,4-Dihydrospiro[chromene-2,1′-cyclobutan]-5-methoxy-4-yl)-3-(2-cyclopentyloxy-3-methoxy)phenylpropanamide] | 39.6 | 92.5 | – |
| O=C(Cc1ccc2c(c1)OCO2)NC1CC2(CCC2)Oc2ccc(Cl)cc21 (centres unmarked) [Example 23, 2-(1,3-Benzodioxol-5-yl)-N-(6-chloro-3,4-dihydrospiro[chromene-2,1′-cyclobutan]-4-yl)acetamide] | 6.2 | 65.3 | – |
| COc1ccc2ccccc2c1CCC(=O)N[C@@H]1CC2(CCC2)Oc2ccc(Cl)cc21 [Example 67] | 17 | 84.7 | – |
| O=C(CCc1ccccc1OC1CCCC1)N[C@H]1CC2(CCC2)Oc2c(Cl)cccc21 [Example 32] | 24.8 | 43.9 | – |
